Measured values from patent publication US5962487A, “Antipicornaviral compounds and methods for their use and preparation” (Agouron Pharmaceuticals, Inc., priority 1997, dated 1999).

Tests used:
HRV-14 = assay: Antirhinoviral HI-HeLa Cell Culture Assay (cell protection, XTT), HRV-14; type: cell-based, human rhinovirus; details: for TI: CC50/EC50, HRV serotype-14, 2880 min; for EC50: Rhinovirus B, HRV14, 48 h, HRV serotype-14 infected HI-HeLa cells, XTT, two days
Protocol: In the Cell Protection Assay, the ability of compounds to protect cells against HRV infection was measured by the XTT dye reduction method. This method is described in O. S. Weislow, R. Kiser, D. L. Fine, J. Bader, R. H. Shoemaker, and M. R. Boyd, J. Natl. Cancer Inst. 1989, 81, 577-586, which document is entirely incorporated herein by reference.
(§1) HI-HeLa cells were infected with HRV-14 (unless otherwise noted) at a multiplicity of infection (m.o.i.) of 0.13 (virus particles/cell) or mock-infected with medium only. Infected or mock-infected cells were resuspended at 8×10^5 cells per mL and incubated with appropriate concentrations of compounds of formulas I and II. Two days later, XTT/PMS was added to test plates, and the amount of formazan produced was quantified spectrophotometrically at 450/650 nm. The EC50 was calculated as the concentration of compound that increased the percentage of formazan production in compound-treated, virus-infected cells to 50% of that produced by compound-free mock-infected cells. The 50% cytotoxic dose (CC50) was calculated as the concentration of compound that decreased the percentage of formazan produced in compound-treated, mock-infected cells to 50% of that produced in compound-free, mock-infected cells. The therapeutic index (TI) was calculated by dividing the CC50 by the EC50.
(§2) All strains of human rhinovims (HRV) for use in this assay were purchased from American Type Culture Collection (ATCC), except for HRV serotype-14, which was produced from the infectious cDNA clone, constructed and supplied to us by Dr. Roland Rueckert at the Institute for Molecular Virology, University of Wisconsin, Madison, Wis. HRV stocks were propagated, and antiviral assays were performed in HI-HeLa (ATCC). Cells were grown in Minimal Essential Medium, available from Life Technologies, with 10% fetal bovine serum.
The compounds were tested against control compounds WIN 51711, WIN 52084, and WIN 54954, all obtained from Sterling-Winthrop Pharmaceuticals, and control compound Pirodavir, obtained from Janssen Pharmaceuticals. Antiviral data obtained for the test compounds are shown in Table 2 where all data are for HRV serotype-14 unless otherwise noted in parentheses.

[1] = biological target: T1, Rhinovirus 3C protease (RVP) serotype-14 (Human rhinovirus 14, UniProt P03303); assay: Inhibition of Rhinovirus Protease, serotype 14 (FRET assay); type: biochemical; details: for kinact/KI: read-out: kobs/I; for Ki / inhibition at 10 µM: RVP serotype-14; for Ki: 10 minute preincubation with 50 nM RVP prior to addition of substrate, read-out: INHIB (Ki); for inhibition at 10 µM: 10 μM compound, 10 minute preincubation with 50 nM RVP, read-out: INHIB (percent inhibition)
T1 construct: Recombinant Rhinovirus 3C proteases from serotypes 14, 16, 2 or 89 were prepared; made in house
T1 sequence (P03303 1538-1719): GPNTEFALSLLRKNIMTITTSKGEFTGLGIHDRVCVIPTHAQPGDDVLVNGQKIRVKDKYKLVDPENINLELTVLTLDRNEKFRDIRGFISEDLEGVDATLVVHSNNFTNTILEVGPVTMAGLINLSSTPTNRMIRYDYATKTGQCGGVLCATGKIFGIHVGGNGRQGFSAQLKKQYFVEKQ
Protocol: Stock solutions (50 mM, in DMSO) of various compounds were prepared; dilutions were in the same solvent. Recombinant Rhinovirus 3C proteases from serotypes 14, 16, 2 or 89 were prepared by the following standard chromatographic procedures: (1) ion exchange using Q Sepharose Fast Flow from Pharmacia; (2) affinity chromatography using Affi-Gel Blue from Biorad; and (3) sizing using Sephadex G-100 from Pharmacia. Assays contained 2% DMSO, 50 mM tris pH 7.6, 1 mM EDTA, a compound at the indicated concentrations, approximately 1 μM substrate, and 50-100 nM protease. For Ki determinations, the compound and the enzyme were preincubated for 10 minutes at 30° C. prior to addition of the substrate (substrate start). The kobs/I values were obtained from reactions initiated by addition of enzyme rather than substrate. RVP activity is measured in the fluorescence resonance energy transfer assay. The substrate was (N-terminal) DABCYL-(Gly-Arg-Ala-Val-Phe-Gln-Gly-Pro-Val-Gly)-EDANS. In the uncleaved peptide, the EDANS fluorescence was quenched by the proximal DABCYL moiety. When the peptide was cleaved, the quenching was relieved, and activity was measured as an increase in fluorescence signal.
In the above table, all data is for RVP serotype-14 unless otherwise noted in parentheses. All strains of human rhinovirus (HRV) were purchased from American Type Culture Collection (ATCC), except for serotype 14, which was produced from the infectious cDNA clone constructed and supplied to us by Dr. Roland Rueckert at the Institute for Molecular Virology, University of Wisconsin, Madison, Wis. The column designated INHIB represents the percent inhibition, with the concentration of the compound in μM indicated in parentheses, unless Ki was assigned as designated by (Ki), at 10 minute preincubation with 50 nM RVP prior to addition of substrate was used. The data in the column designated kobs/I was measured from progress curves in enzyme start experiments.

in vitro = type: cell-based; details: human, hi-hela cells
Protocol: as §1, §2

| SMILES | TI (HRV-14) | EC50 (HRV-14) [µM] | kinact/KI [1] [M⁻¹ s⁻¹] | CC50 at 48 h (in vitro) [µM] | Ki [1] [µM] | inhibition at 10 µM [1] [%] |
| --- | --- | --- | --- | --- | --- | --- |
| CCOC(=O)/C=C/C(CCC(N)=O)NC(=O)[C@@H]1CCc2ncc(NC(=O)SCC)c(=O)n21 (stereo partly shown) [Compound 52] | > 3 | 32 | 31100 | > 100 | – | – |
| CCOC(=O)/C=C/[C@H](CCC(N)=O)NC(=O)[C@@H]1[C@@H](C)CCN1C(=O)[C@H](CC(C)C)NC(=O)OCc1ccccc1 [Compound 21, Ethyl-3-[CBZ-L-Leu-L-(3S-Methyl)-Pro-L-Gln]-E-Propenoate] | > 15 | 22 | 256 | > 320 | 50 | – |
| CCOC(=O)/C=C/[C@H](CCC(N)=O)NC(=O)Cn1c(-c2ccccc2)ncc(NC(=O)OCc2ccccc2)c1=O [Compound 30, Ethyl-3-([(5-CBZ-Amino)-2-Phenyl-6-Oxo-1,6-Dihydro-1-Pyrimidinyl]-L-Gln)-E-Propenoate] | 25 | 7.2 | 163 | 177 | 55 | – |
| CCOC(=O)/C=C/[C@H](CCC(N)=O)NC(=O)[C@H](Cc1ccccc1)n1cc[nH]c1=O [Compound 32, Ethyl-3-(L-N-[(1,3-Dihydro-imidazol-2-one)-Phe]-L-Gln)-E-Propenoate] | > 2 | 158 | 98 | > 320 | – | – |
| CCOC(=O)/C(C)=C/[C@H](CCC(N)=O)NC(=O)[C@H](Cc1ccc(C)cc1)N(C)C(=O)[C@@H](NC(=O)SC1CCCC1)C(C)(C)C [Compound 49] | 710 | 0.1 | 1910 | 71 | – | – |
| CCOC(=O)/C=C/[C@H](CCC(N)=O)NC(=O)[C@H](Cc1ccccc1)N(C)C(=O)[C@H](CCc1ccccc1)NC(=O)SCc1ccccc1 [Compound 9, Ethyl-3-(Benzylthiocarbonyl-L-hPhe-L-N-Me-Phe-L-Gln)-E-Propenoate] | 225 | 0.25 | 57000 | 56.2 | 4.4 | – |
| CCOC(=O)/C(C)=C/[C@H](CCC(N)=O)NC(=O)[C@H](Cc1ccccc1)N(C)C(=O)[C@H](CC(C)C)NC(=O)SC1CCCCC1 [Compound 43] | 16 | 3.5 | 2200 | 56.2 | – | – |
| CCOC(=O)/C=C/C(CCC(N)=O)NC(=O)[C@H](Cc1ccccc1)N1CC[C@@H](NC(=O)SC2CCCCC2)C1=O (stereo partly shown) [Compound 54] | > 6 | 17.8 | – | > 100 | – | 55 |
| CCOC(=O)/C=C/[C@H](CCC(N)=O)NC(=O)[C@H](Cc1ccccc1)n1ccn(NC(=O)OCc2ccccc2)c1=O [Compound 33, Ethyl-3-(CBZ-amino-L-N-[(1,3-Dihydro-imidazol-2-one)-Phe]-L-Gln)-E-Propenoate] | – | > 320 | 361 | > 320 | – | 86 |
| CCOC(=O)/C=C/[C@H](CCC(N)=O)NC(=O)C1CN(S(=O)(=O)c2ccccc2)CCN1C(=O)[C@H](CC(C)C)NC(=O)OCc1ccccc1 (mixture of isomers) [Compound 29, Ethyl-3-[CBZ-L-Leu-DL-(4-Phenylsulfonyl)-Pipz-L-Gln]-E-Propenoate] | 5 | 46 | 45 | 251 | – | – |
| CCSC(=O)N[C@@H](CC(C)C)C(=O)N(C)[C@@H](Cc1ccccc1)C(=O)N[C@H](/C=C1\CCOC1=O)CCC(N)=O [Compound 8, 2-(Ethylthiocarbonyl-L-Leu-L-N-Me-Phe-L-Gln)-E-(α-Vinyl-γ-Butyrolactone)] | > 32 | 10 | 6880 | > 320 | – | – |
| CCOC(=O)/C=C/[C@H](CCC(N)=O)NC(=O)[C@@H]1[C@@H](c2ccccc2)CCN1C(=O)[C@H](CC(C)C)NC(=O)OCc1ccccc1 [Compound 18, Ethyl-3-[CBZ-L-Leu-L-(3R-Phenyl)-Pro-L-Gln]-E-Propenoate] | 25 | 5 | 423 | 126 | 7 | – |
| CON(C)C(=O)/C=C/[C@H](CCC(N)=O)NC(=O)[C@@H]1[C@@H](c2ccccc2)CCN1C(=O)[C@H](CC(C)C)NC(=O)OCc1ccccc1 [Compound 22, N-Methoxy, N-Methyl-3-[CBZ-L-Leu L-(3R-Phenyl)-Pro-L-Gln]-E-Propenamide] | > 2 | 178 | 100 | > 320 | – | – |
| CC(C)C[C@H](NC(=O)SC1CCCC1)C(=O)N(C)[C@@H](Cc1ccccc1)C(=O)N[C@H](/C=C1\CCOC1=O)CCC(N)=O [Compound 6, 2-(Cyclopentylthiocarbonyl-L-Leu-L-N-Me-Phe-L-Gln)-E(α-Vinyl-γ-Butyrolactone)] | 54 | 2.8 | 9500 | 151 | – | – |
| CCSC(=O)N[C@@H](CC(C)C)C(=O)N(C)[C@@H](Cc1ccccc1)C(=O)N[C@H](/C=C/C(=O)N1CCc2ccccc21)CCC(N)=O [Compound 7, 1-(2',3'-Dihydroindolin-1-yl)-3-(Ethylthiocarbonyl-L-Leu-L-N-Me-Phe-L-Gln)-E-Propenone] | 37 | 1.3 | 3820 | 47.9 | – | – |
| CCOC(=O)/C(C)=C/[C@H](CCC(N)=O)NC(=O)[C@H](Cc1ccccc1)N(C)C(=O)[C@H](CSc1ccccc1)NC(=O)SC1CCCC1 [Compound 47] | 14 | 1.3 | 6500 | 18 | – | – |
| CCCOC(=O)/C=C/[C@H](CCC(N)=O)NC(=O)[C@H](Cc1ccccc1)N(C)C(=O)[C@H](CC(C)C)NC(=O)SC1CCCC1 [Compound 57] | 89 | 0.56 | 13500 | 50 | – | – |
| COCCOC(=O)/C=C/[C@H](CCC(N)=O)NC(=O)[C@H](Cc1ccccc1)N(C)C(=O)[C@H](CC(C)C)NC(=O)SC1CCCC1 [Compound 58] | 113 | 0.56 | 24300 | 63 | – | – |
| Cc1cc(CCCCCCCOc2ccc(C3=NCCO3)cc2)on1 [WIN 51711, reference compound] | > 77 | 0.78 | – | > 60 | – | – |
| CCOC(=O)/C=C/[C@H](CCC(N)=O)NC(=O)[C@H](Cc1ccccc1)N(C)C(=O)[C@H](CSc1ccccc1)NC(=O)SC1CCCC1 [Compound 46] | 33 | 0.54 | 36800 | 18 | – | – |
| CN(C(=O)[C@H](CCc1ccccc1)NC(=O)SCc1ccccc1)[C@@H](Cc1ccccc1)C(=O)N[C@H](/C=C1\CCOC1=O)CCC(N)=O [Compound 10, 2-(Bezylthiocarbonyl-L-hPhe-L-N-Me-Phe-L-Gln)-E-(α-Vinyl-γ-Butyrolactone)] | 31 | 1.8 | 41800 | 56.2 | 2 | – |
| Cc1cc(CCCCCCCOc2ccc(C3=N[C@@H](C)CO3)cc2)on1 [WIN 52084, reference compound] | > 143 | 0.07 | – | > 10 | – | – |
